Reference: the supplement of paper PMC10883282
± gives the standard deviation of the averaged measurements.

Experiments:
Test in all cases: relative viability vs DMSO control (72 h) (fraction); higher = more viable cells
KHOS-240S = tested on: KHOS-240S
How it was run: (§1)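 A 5 µM positive control and 0.1% DMSO vehicle ran alongside sarcoma cell lines seeded in 384-well plates to reach 80–90% confluence. Serially diluted compound, 2.5 µl from source plates of 10 mM to 0.0002 mM, was added after 24 h, and the plates were held 72 h at 37 °C, 5% CO2. Relative viability was worked out from ATPLite readings as percent growth averaged over up to triplicate wells. The values were rescaled so that 1 is full and 0 is none.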

RD-ES = tested on: RD-ES
How it was run: as §1

RD = tested on: RD
How it was run: as §1

SK-ES-1 = tested on: SK-ES-1
How it was run: as §1

SW982 = tested on: SW982
How it was run: as §1

COc1cc2nccc(Oc3ccc(NC(=O)NC4CC4)c(Cl)c3)c2cc1C(N)=O [Lenvatinib]
relative viability
Settings	KHOS-240S	RD	RD-ES	SK-ES-1	SW982
0.00017 µM	0.992 ± 0.044	0.985 ± 0.07	0.959 ± 0.049	0.985 ± 0.02	1 ± 0.052
0.00051 µM	1 ± 0.03	0.993 ± 0.08	0.98 ± 0.051	1.01 ± 0.05	0.993 ± 0.033
0.00152 µM	1.03 ± 0.022	1.04 ± 0.052	0.959 ± 0.042	0.9845 ± 0.0066	0.998 ± 0.017
0.00457 µM	1.01 ± 0.04	1.04 ± 0.042	0.961 ± 0.024	0.958 ± 0.065	0.9857 ± 0.0098
0.01372 µM	0.977 ± 0.041	1.02 ± 0.078	0.923 ± 0.039	0.979 ± 0.066	0.989 ± 0.033
0.04115 µM	0.938 ± 0.044	1.02 ± 0.063	0.942 ± 0.047	0.938 ± 0.026	0.99 ± 0.023
0.1235 µM	0.913 ± 0.031	1.04 ± 0.026	0.875 ± 0.055	0.911 ± 0.074	0.982 ± 0.036
0.3704 µM	0.824 ± 0.0087	1.047 ± 0.0078	0.857 ± 0.052	0.881 ± 0.019	0.968 ± 0.035
1.111 µM	0.738 ± 0.037	1.04 ± 0.039	0.852 ± 0.022	0.791 ± 0.061	0.947 ± 0.034
3.333 µM	0.72 ± 0.025	1.08 ± 0.027	0.835 ± 0.025	0.689 ± 0.025	0.926 ± 0.018
10 µM	0.6606 ± 0.0029	0.984 ± 0.062	0.815 ± 0.04	0.593 ± 0.032	0.8573 ± 0.0049

CCCCCCCCCCCCCCCCCCOP(=O)([O-])OC1CC[N+](C)(C)CC1 [Perifosine]
relative viability
Settings	KHOS-240S	RD	RD-ES	SK-ES-1	SW982
0.00017 µM	1.09 ± 0.029	1.05 ± 0.044	0.985 ± 0.018	1.08 ± 0.056	1.02 ± 0.022
0.00051 µM	1.1 ± 0.051	1.07 ± 0.064	1 ± 0.014	1.06 ± 0.021	1.04 ± 0.031
0.00152 µM	1.11 ± 0.049	1.09 ± 0.089	1.03 ± 0.043	1.07 ± 0.013	1.06 ± 0.018
0.00457 µM	1.1 ± 0.033	1.11 ± 0.064	1.002 ± 0.0085	1.02 ± 0.013	1.08 ± 0.018
0.01372 µM	1.1 ± 0.059	1.07 ± 0.058	0.978 ± 0.02	0.975 ± 0.013	1.1 ± 0.017
0.04115 µM	1.09 ± 0.04	1.07 ± 0.07	0.989 ± 0.033	0.951 ± 0.033	1.08 ± 0.034
0.1235 µM	1.09 ± 0.026	1.1 ± 0.044	1.02 ± 0.028	1.05 ± 0.04	1.1 ± 0.036
0.3704 µM	1.08 ± 0.029	1.07 ± 0.044	1.01 ± 0.012	0.996 ± 0.015	1.08 ± 0.033
1.111 µM	1.09 ± 0.061	1.08 ± 0.052	0.985 ± 0.037	1.05 ± 0.029	1.06 ± 0.035
3.333 µM	1.04 ± 0.033	1.09 ± 0.039	0.983 ± 0.03	1.02 ± 0.024	1.06 ± 0.047
10 µM	0.818 ± 0.04	0.997 ± 0.032	0.996 ± 0.028	1.01 ± 0.041	0.88 ± 0.026
